Assays:
[1] = biological target: T1, G733D/N736K BKCa channel (Homo sapiens, UniProt Q12791, G856D/N859K); assay: FluxOR fluorescence-based assay, cells stably expressing G733D/N736K BKCa channel; type: cell-based
T1 construct: NO: 4; expressed in transfected cells
Procedure: (§1) Commercially available FluxOR™ Potassium Ion Channel Assay (Invitrogen) was used in order to perform a fluorescence-based assay for BKCa channels. AD-293 cells stably expressing WT and G733D/N736K BKCa channels were plated onto a poly-D-lysine (Sigma)-coated 96-well microplate (Corning) (5×10^4 cells per well). Cells were pre-cultured with a test compound, CTBIC (4-chloro-7-(trifluoromethyl)-10H-benzofuro[3,2-b]indole-1-carboxylic acid) for 30 minutes in advance of the recording. The fluorescence signal was measured using a Synergy™ H1 Hybrid Multi-Mode Microplate Reader (BioTek Instrument, Inc., Winnoski, Vt.) with Gen5 software. […] The microplate was read every 15 seconds in order to identify whether or not the system of the present invention is suitable for high throughput screening using a standard fluorimeter.
(§2) Finally, the present inventors performed experiments to determine whether cells stably expressing hyperactive BKCa channels are suitable for high-throughput screening for channel activators. […] When cells reached 80% to 90% confluence, FluxOR™ signals were measured. Further, the fluorescence signals from parental AD-293 cell lines were measured as a control group. Prior to reading out the fluorescence, the cells were pre-treated with 10 μM CTBIC or DMSO (control group). […] Relative fluorescence unit (RFU) values increased up to 2.3-fold as compared to basal responses.

[2] = biological target: T2, WT BKCa channel (Homo sapiens, UniProt Q12791); assay: FluxOR fluorescence-based assay, cells stably expressing WT BKCa channel; conditions: 10 μM CTBIC, stable cell lines expressing WT channel, FIG. 5b
T2 construct: expressed in transfected cells
T2 sequence (Q12791 1-1178 isoform Q12791-5): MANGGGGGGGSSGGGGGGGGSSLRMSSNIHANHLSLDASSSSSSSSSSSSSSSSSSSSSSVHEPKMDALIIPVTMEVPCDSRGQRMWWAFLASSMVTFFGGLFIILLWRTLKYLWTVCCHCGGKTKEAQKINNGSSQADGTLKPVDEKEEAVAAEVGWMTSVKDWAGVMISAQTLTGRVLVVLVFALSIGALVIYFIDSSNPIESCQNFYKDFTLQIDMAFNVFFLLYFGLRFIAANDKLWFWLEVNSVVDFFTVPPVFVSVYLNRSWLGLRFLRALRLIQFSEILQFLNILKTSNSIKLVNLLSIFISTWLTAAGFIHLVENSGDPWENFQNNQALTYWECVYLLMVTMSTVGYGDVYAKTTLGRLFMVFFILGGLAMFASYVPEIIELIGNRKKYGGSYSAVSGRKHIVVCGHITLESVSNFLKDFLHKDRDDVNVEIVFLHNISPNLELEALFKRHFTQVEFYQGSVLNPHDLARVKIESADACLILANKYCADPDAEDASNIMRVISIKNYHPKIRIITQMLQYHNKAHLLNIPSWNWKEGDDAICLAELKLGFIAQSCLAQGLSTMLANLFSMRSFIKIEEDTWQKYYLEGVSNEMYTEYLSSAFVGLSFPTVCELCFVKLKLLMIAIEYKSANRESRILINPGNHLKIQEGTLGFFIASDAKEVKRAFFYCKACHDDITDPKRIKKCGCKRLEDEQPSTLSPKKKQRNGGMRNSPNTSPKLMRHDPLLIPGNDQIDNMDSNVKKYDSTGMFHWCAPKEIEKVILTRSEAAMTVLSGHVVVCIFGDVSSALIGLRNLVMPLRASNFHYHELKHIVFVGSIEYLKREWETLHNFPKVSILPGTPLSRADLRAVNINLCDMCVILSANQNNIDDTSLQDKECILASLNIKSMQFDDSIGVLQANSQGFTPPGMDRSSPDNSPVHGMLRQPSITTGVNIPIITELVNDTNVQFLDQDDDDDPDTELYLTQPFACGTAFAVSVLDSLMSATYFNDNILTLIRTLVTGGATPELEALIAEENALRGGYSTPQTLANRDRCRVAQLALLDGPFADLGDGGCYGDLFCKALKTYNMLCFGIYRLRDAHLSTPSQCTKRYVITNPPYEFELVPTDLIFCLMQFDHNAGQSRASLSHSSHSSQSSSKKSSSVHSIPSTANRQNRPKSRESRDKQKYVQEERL
Procedure: as §1, §2

[3] = test system: parental AD-293 cells; assay: FluxOR fluorescence-based assay, parental cell line (control); conditions: 10 μM CTBIC, FIG. 5a
Procedure: as §1, §2

[4] = biological target: T2, WT BKCa channel; assay: Patch clamp macroscopic current recording, WT BKCa channel; type: cell-based
Procedure: Macroscopic current recordings were performed using a gigaohm seal patch clamp method. Patch pipettes were made from borosilicate glass (WPI, Sarasota, Fla.), and then fire polished with resistance of 3-5 MΩ. The channel currents were amplified using Axopatch 200B amplifier (Axon Instruments, Foster City, Calif.), low-pass filtered at 1 or 2 kHz using a four-pole Bessel filter, and then digitized at a rate of 10 or 20 points/ms using a Digidata 1200 A digitizer (Axon Instruments). The ionic currents of BKCa channels were activated by voltage-clamped pulses delivered from a holding potential of −100 mV to membrane potentials ranging from −80 mV to 200 mV in increments of 10 mV. The intracellular and extracellular solutions contained, unless otherwise specified, 116 mM KOH (Sigma), 4 mM KCl (Sigma), 10 mM HEPES and 5 mM EGTA (Sigma), and were titrated to pH 7.2 using MES (2-(N-morpholino)ethanesulfonic acid). In order to precisely measure [Ca^2+]i, the appropriate amount of total […] to be added to the intracellular solution was calculated using MaxChelator software (Patton, et al., 2004; http://maxchelator.stanford.edu/). […]

[5] = biological target: T1, G733D/N736K BKCa channel; assay: Patch clamp macroscopic current recording, G733D/N736K BKCa channel; type: cell-based
Procedure: Macroscopic current recordings were performed using a gigaohm seal patch clamp method. Patch pipettes were made from borosilicate glass (WPI, Sarasota, Fla.), and then fire polished with resistance of 3-5 MΩ. The channel currents were amplified using Axopatch 200B amplifier (Axon Instruments, Foster City, Calif.), low-pass filtered at 1 or 2 kHz using a four-pole Bessel filter, and then digitized at a rate of 10 or 20 points/ms using a Digidata 1200 A digitizer (Axon Instruments). The ionic currents of BKCa channels were activated by voltage-clamped pulses delivered from a holding potential of −100 mV to membrane potentials ranging from −80 mV to 200 mV in increments of 10 mV. The intracellular and extracellular solutions contained, unless otherwise specified, 116 mM KOH (Sigma), 4 mM KCl (Sigma), 10 mM HEPES and 5 mM EGTA (Sigma), and were titrated to pH 7.2 using MES (2-(N-morpholino)ethanesulfonic acid). In order to precisely measure [Ca^2+]i, the appropriate amount of total […] to be added to the intracellular solution was calculated using MaxChelator software (Patton, et al., 2004; http://maxchelator.stanford.edu/).
In order to evaluate the suitability of cell lines stably expressing G733D/N736K channels as a platform for identification of BKCa channel modulators, the function of a strong BKCa channel activator, CTBIC, which potentiates mutated channel activity, was investigated (Gormemis, et al., 2005; Lee, et al., 2012). […] The relative conductance (G/Gmax) was obtained by normalizing the tail currents (evoked by a step hyperpolarization to −100 mV from a given voltage) to the maximum tail current. The G/Gmax values at 0 μM and 10 μM CTBIC were fitted using a Boltzmann function.

T1 sequence (Q12791 66-1178 isoform Q12791-5 G798D/N801K): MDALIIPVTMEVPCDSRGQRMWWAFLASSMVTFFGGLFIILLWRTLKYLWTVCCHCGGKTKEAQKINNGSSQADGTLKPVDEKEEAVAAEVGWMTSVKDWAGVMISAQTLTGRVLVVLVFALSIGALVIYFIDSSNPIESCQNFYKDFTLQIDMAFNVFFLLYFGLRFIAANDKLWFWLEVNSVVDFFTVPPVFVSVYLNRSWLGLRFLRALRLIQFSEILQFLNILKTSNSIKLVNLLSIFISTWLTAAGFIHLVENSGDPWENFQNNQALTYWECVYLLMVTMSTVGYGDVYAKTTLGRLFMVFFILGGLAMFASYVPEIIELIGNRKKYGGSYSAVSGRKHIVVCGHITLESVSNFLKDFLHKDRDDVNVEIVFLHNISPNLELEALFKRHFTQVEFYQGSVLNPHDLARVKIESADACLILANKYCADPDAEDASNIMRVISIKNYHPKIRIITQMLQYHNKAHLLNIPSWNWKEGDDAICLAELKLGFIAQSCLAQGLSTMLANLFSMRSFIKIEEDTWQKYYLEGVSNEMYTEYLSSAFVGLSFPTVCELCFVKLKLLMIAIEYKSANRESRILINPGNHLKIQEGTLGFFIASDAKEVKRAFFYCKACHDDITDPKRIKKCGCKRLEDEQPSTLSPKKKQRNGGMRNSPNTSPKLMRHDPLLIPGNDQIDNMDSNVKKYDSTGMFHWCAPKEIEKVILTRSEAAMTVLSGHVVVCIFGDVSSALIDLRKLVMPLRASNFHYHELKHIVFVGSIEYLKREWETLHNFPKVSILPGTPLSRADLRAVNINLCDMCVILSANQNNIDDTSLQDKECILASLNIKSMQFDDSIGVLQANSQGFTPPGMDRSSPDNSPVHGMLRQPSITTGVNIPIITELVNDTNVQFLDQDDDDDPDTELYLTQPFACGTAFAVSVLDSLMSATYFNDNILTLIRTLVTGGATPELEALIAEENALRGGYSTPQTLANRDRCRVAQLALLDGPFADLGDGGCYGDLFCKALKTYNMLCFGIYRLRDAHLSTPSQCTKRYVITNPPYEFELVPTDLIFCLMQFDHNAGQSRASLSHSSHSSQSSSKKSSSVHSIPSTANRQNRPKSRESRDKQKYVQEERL

O=C(O)c1ccc(Cl)c2c1[nH]c1c3ccc(C(F)(F)F)cc3oc12 [CTBIC, 4-chloro-7-(trifluoromethyl)-10H-benzofuro[3,2-b]indole-1-carboxylic acid]
Relative fluorescence unit (RFU) increase as compared to basal responses ([1]; 10 μM CTBIC, 30 min pre-treatment, AD-293 cells stably expressing G733D/N736K channel, stimulus buffer 10 mM free K+): up to 2.3 fold | increase in fluorescence signals ([1]; stimulus with 10 μM CTBIC, FIG. 5c): ~2.3 times | fluorescence increase [2]: about 1.3 fold | impact on the induced fluorescence increase [3]: minimum impact | effect on ionic current ([4]; 10 μM CTBIC added to membrane patch, 100 nM [Ca2+]i, FIG. 4a): strongly potentiated | shift of G-V curve ([4]; 10 μM CTBIC, FIG. 4c): shifted in the negative direction | effect on ionic current ([5]; 10 μM CTBIC added to membrane patch, 100 nM [Ca2+]i, FIG. 4b): strongly potentiated | shift of G-V curve ([5]; 10 μM CTBIC, FIG. 4c): shifted in the negative direction | shift in V1/2 value (V1/2 free vs. V1/2 10 μM) ([5]; 10 μM CTBIC, compared with WT channel, FIG. 4d): much larger than the shift for the WT channel

Source: patent US20160061816A1, “SCREENING METHOD FOR ION CHANNEL MODULATORS USING MUTATED BKCA CHANNEL” (GWANGJU INSTITUTE OF SCIENCE AND TECHNOLOGY, priority 2013, published 2016)
